According to US20250144067A1, “PERSONALIZED STARVATION THERAPY FOR CANCER” (Faeth Therapeutics, Inc., priority 2021, published 2025):
Counter-ions that a name gives are not always drawn. Like-named read-outs stand apart in the source and are kept apart here.

Columns and labels:
[1] = system: NCI-H292 lung cancer cells; test: FDA drug screening, complete media vs cholesterol-free media without statin (TABLE 1); format: cell-based, human
[2] = system: NCI-H292 lung cancer cells; test: FDA drug screening, complete media vs cholesterol-free media with simvastatin (TABLE 2); format: cell-based, human
[3] = NCI-H292 cells, cholesterol-free media without statin
[4] = NCI-H292 cells, drug in cholesterol-free media with simvastatin 0.04 μM
[5] = NCI-H292 cells, drug in complete media
[6] = Complete minus Cholesterol-free, >0 enhanced anti-cancer activity, about 0 neutral, <0 antagonist
[7] = NCI-H292 cells, cholesterol-free media without statin, FDA drug library screen
[8] = NCI-H292 cells, complete media, FDA drug library screen
[9] = NCI-H292 cells, cholesterol-free media with simvastatin 0.04 μM, FDA drug library screen (TABLE 2)
[10] = NCI-H292 cells, complete media, FDA drug library screen (TABLE 2)
[11] = complete media minus cholesterol-free media + simvastatin (0.04 μM), >0 enhanced anti-cancer activity, about 0 neutral, <0 antagonist
[12] = complete vs cholesterol-free media, greater than 0 enhanced anti-cancer activity, about 0 neutral, below 0 antagonists
[13] = NCI-H292 cells, FDA drug library screen, cholesterol-free media with simvastatin 0.04 μM
[14] = NCI-H292 cells, FDA drug library screen, complete media
[15] = complete media minus cholesterol-free media + simvastatin, >0 enhanced anti-cancer activity, about 0 neutral, <0 antagonist
[16] = Complete minus Cholesterol-free, greater than 0 enhanced anti-cancer activity, about 0 neutral, below 0 antagonist
[17] = NCI-H292 cells, FDA drug library screen, cholesterol-free media without statin
[18] = complete media vs cholesterol-free media + simvastatin (0.04 μM), >0 enhanced anti-cancer activity, about 0 neutral, <0 antagonist
[19] = NCI-H292 cells, cholesterol-free media with simvastatin 0.04 μM, cell growth value in FDA drug screen
[20] = NCI-H292 cells, complete media, cell growth value in FDA drug screen
[21] = complete vs cholesterol-free media, >0 enhanced anti-cancer activity, about 0 neutral, <0 antagonist
[22] = Complete minus Cholesterol-free, greater than 0 enhanced anti-cancer activity, about 0 neutral, below 0 antagonists
[23] = NCI-H292 cells in cholesterol-free media without statin
[24] = NCI-H292 cells in complete media

CC(=O)O[C@H]1C[C@@H]2CC[C@@H]3[C@H](CC[C@@]4(C)[C@H]3C[C@H]([N+]3(C)CCCCC3)[C@@H]4OC(C)=O)[C@@]2(C)C[C@@H]1[N+]1(C)CCCCC1.[Br-].[Br-] [Pancuronium (dibromide)]
Cholesterol-free [1, 3]: 1.193
Complete ([1]; NCI-H292 cells, complete media): 0.8678
Difference ([1]; complete vs cholesterol-free media, […]): −0.33
Cholesterol-free media + simvastatin (0.04 μM) [2, 4]: 1.121
Complete Media [2, 5]: 0.885
Difference ([2]; complete media vs cholesterol-free media + simvastatin (0.04 μM), […]): −0.24

Cc1[nH]c2ccccc2c1CCNCc1ccc(/C=C/C(=O)NO)cc1 [Panobinostat]
Difference [1, 6]: −0.03
Cholesterol-free [1, 7]: −0.004474
Complete [1, 8]: −0.02997
Cholesterol-free media + simvastatin (0.04 μM) [2, 9]: 0.008426
Complete Media [2, 10]: −0.004725
Difference [2, 11]: −0.01

COc1ccnc(C[S+]([O-])c2nc3ccc(OC(F)F)cc3[nH]2)c1OC (centres unmarked) [Pantoprazole (sodium hydrate)]
Cholesterol-free [1, 3]: 1.314
Complete ([1]; NCI-H292 cells, complete media): 0.9437
Difference [1, 12]: −0.37
Cholesterol-free media + simvastatin (0.04 μM) [2, 13]: 1.494
Complete Media [2, 14]: 1.718
Difference [2, 15]: 0.22

COc1ccnc(C[S+]([O-])c2nc3cc(OC(F)F)ccc3[n-]2)c1OC.[Na+] (centres unmarked) [Pantoprazole (sodium)]
Difference ([1]; Complete minus Cholesterol-free, […]): −0.01
Cholesterol-free [1, 7]: 0.8197
Complete [1, 8]: 0.8107
Cholesterol-free media + simvastatin (0.04 μM) ([2]; NCI-H292 cells, cholesterol-free media with simvastatin 0.04 μM, […]): 1.655
Complete Media ([2]; NCI-H292 cells, complete media, […]): 1.781
Difference ([2]; complete media minus cholesterol-free media + simvastatin, […]): 0.13

CCC(=O)NS(=O)(=O)c1ccc(-c2c(-c3ccccc3)noc2C)cc1 [Parecoxib (Sodium)]
Difference [1, 16]: −0.08
Cholesterol-free [1, 17]: 0.9327
Complete [1, 14]: 0.8551
Cholesterol-free media + simvastatin (0.04 μM) [2, 13]: 2.419
Difference [2, 11]: −1.17

CCC(=O)NS(=O)(=O)c1ccc(-c2c(-c3ccccc3)noc2C)cc1 [Parecoxib]
Difference [1, 6]: −0.20
Cholesterol-free [1, 3]: 0.9171
Complete ([1]; NCI-H292 cells, complete media): 0.7131
Cholesterol-free media + simvastatin (0.04 μM) [2, 4]: 0.9747
Complete Media [2, 5]: 0.7244
Difference [2, 18]: −0.25

C#CCN(C)Cc1ccccc1 [Pargyline (hydrochloride)]
Cholesterol-free [1, 3]: 1.204
Complete ([1]; NCI-H292 cells, complete media): 0.7875
Difference [1, 12]: −0.42
Cholesterol-free media + simvastatin (0.04 μM) [2, 9]: 0.8767
Complete Media [2, 10]: 0.8243
Difference [2, 11]: −0.05

Cc1cnc(C(=O)N[C@H]2CCCCC/C=C\[C@@H]3C[C@@]3(C(=O)NS(=O)(=O)C3CC3)NC(=O)[C@@H]3C[C@@H](Oc4nc5ccccc5c5ccccc45)CN3C2=O)cn1 [Paritaprevir]
Difference [1, 6]: −0.03
Cholesterol-free [1, 7]: 0.9471
Complete [1, 8]: 0.9198
Cholesterol-free media + simvastatin (0.04 μM) [2, 9]: 1.147
Complete Media [2, 10]: 1.102
Difference [2, 11]: −0.05

Fc1ccc([C@@H]2CCNC[C@H]2COc2ccc3c(c2)OCO3)cc1 [Paroxetine (hydrochloride)]
Difference [1, 6]: −0.22
Cholesterol-free [1, 3]: 1.09
Complete ([1]; NCI-H292 cells, complete media): 0.8739
Cholesterol-free media + simvastatin (0.04 μM) [2, 9]: 0.916
Complete Media [2, 10]: 0.9086
Difference [2, 11]: −0.01

Cc1ccc(Nc2nccc(N(C)c3ccc4c(C)n(C)nc4c3)n2)cc1S(N)(=O)=O [Pazopanib (Hydrochloride)]
Difference [1, 16]: −0.12
Cholesterol-free [1, 17]: 1.089
Complete [1, 14]: 0.9723
Cholesterol-free media + simvastatin (0.04 μM) [2, 13]: 0.5325
Complete Media [2, 14]: 1.206
Difference [2, 15]: 0.67

Cc1ccc(Nc2nccc(N(C)c3ccc4c(C)n(C)nc4c3)n2)cc1S(N)(=O)=O [Pazopanib]
Difference [1, 6]: 0.02
Cholesterol-free [1, 7]: 1.084
Complete [1, 8]: 1.105
Cholesterol-free media + simvastatin (0.04 μM) [2, 13]: 1.156
Complete Media [2, 14]: 1.457
Difference [2, 15]: 0.30

NC(=O)c1cnc2[nH]ccc2c1N[C@@H]1[C@@H]2CC3C[C@H]1C[C@@](O)(C3)C2 [Peficitinib]
Difference [1, 6]: −0.03
Cholesterol-free [1, 7]: 1.336
Complete [1, 8]: 1.303
Cholesterol-free media + simvastatin (0.04 μM) [2, 19]: 0.6674
Complete Media [2, 20]: 0.776
Difference [2, 15]: 0.11

Nc1nc2[nH]cc(CCc3ccc(C(=O)N[C@@H](CCC(=O)O)C(=O)O)cc3)c2c(=O)[nH]1 [Pemetrexed (disodium hemipenta hydrate)]
Cholesterol-free [1, 7]: 0.09445
Complete [1, 8]: 0.1693
Difference [1, 21]: 0.07
Cholesterol-free media + simvastatin (0.04 μM) [2, 9]: 0.2685
Complete Media [2, 10]: 0.2746
Difference [2, 11]: 0.01

Nc1nc2[nH]cc(CCc3ccc(C(=O)N[C@@H](CCC(=O)O)C(=O)O)cc3)c2c(=O)[nH]1 [Pemetrexed (disodium)]
Difference [1, 6]: −0.19
Cholesterol-free [1, 3]: 0.3169
Complete ([1]; NCI-H292 cells, complete media): 0.1251
Cholesterol-free media + simvastatin (0.04 μM) [2, 19]: 0.1199
Complete Media [2, 20]: 0.1499
Difference [2, 15]: 0.03

Nc1nc2[nH]cc(CCc3ccc(C(=O)N[C@@H](CCC(=O)O)C(=O)O)cc3)c2c(=O)[nH]1 [Pemetrexed]
Difference [1, 6]: −0.01
Cholesterol-free [1, 7]: 0.1659
Complete [1, 8]: 0.1596
Cholesterol-free media + simvastatin (0.04 μM) [2, 9]: 0.2196
Complete Media [2, 10]: 0.2004
Difference [2, 11]: −0.02

Cc1cccn2c(=O)c(-c3nnn[nH]3)cnc12 [Pemirolast (potassium)]
Cholesterol-free [1, 7]: 0.8951
Complete [1, 8]: 1.011
Difference [1, 21]: 0.12
Cholesterol-free media + simvastatin (0.04 μM) [2, 13]: 1.053
Complete Media [2, 14]: 0.9441
Difference [2, 18]: −0.11

Nc1nc2c(ncn2CCC(CO)CO)c(=O)[nH]1 [Penciclovir]
Cholesterol-free [1, 3]: 0.9605
Complete ([1]; NCI-H292 cells, complete media): 0.6394
Difference [1, 12]: −0.32
Cholesterol-free media + simvastatin (0.04 μM) [2, 9]: 1.351
Complete Media [2, 10]: 1.353
Difference [2, 11]: 0.00

OC1(c2ccc(Cl)c(C(F)(F)F)c2)CCN(CCCC(c2ccc(F)cc2)c2ccc(F)cc2)CC1 [Penfluridol]
Difference [1, 16]: −0.14
Cholesterol-free [1, 17]: 0.7419
Complete [1, 14]: 0.6047
Cholesterol-free media + simvastatin (0.04 μM) [2, 9]: 1.076
Complete Media [2, 10]: 1.033
Difference [2, 11]: −0.04

CC(C)(S)[C@@H](N)C(=O)O [Penicillamine]
Difference [1, 22]: −0.55
Cholesterol-free [1, 23]: 1.556
Complete [1, 24]: 1.005
Cholesterol-free media + simvastatin (0.04 μM) [2, 4]: 1.252
Complete Media [2, 5]: 1.083
Difference [2, 18]: −0.17

CC1(C)S[C@@H]2[C@H](NC(=O)Cc3ccccc3)C(=O)N2[C@H]1C(=O)O.CC1(C)S[C@@H]2[C@H](NC(=O)Cc3ccccc3)C(=O)N2[C@H]1C(=O)O.O.O.O.O.c1ccc(CNCCNCc2ccccc2)cc1 [Penicillin G benzathine (tetrahydrate)]
Difference [1, 22]: −0.54
Cholesterol-free [1, 23]: 1.6
Complete [1, 24]: 1.064
Cholesterol-free media + simvastatin (0.04 μM) [2, 4]: 1.321
Complete Media [2, 5]: 1.126
Difference [2, 18]: −0.20

N=C(N)c1ccc(OCCCCCOc2ccc(C(=N)N)cc2)cc1.O=S(=O)(O)CCO.O=S(=O)(O)CCO [Pentamidine (isethionate)]
Difference [1, 16]: −0.17
Cholesterol-free [1, 17]: 0.6432
Complete [1, 14]: 0.4688
Cholesterol-free media + simvastatin (0.04 μM) [2, 19]: 0.3285
Complete Media [2, 20]: 0.4548
Difference [2, 15]: 0.13

OC[C@H]1O[C@@H](n2cnc3c2NC=NC[C@H]3O)C[C@@H]1O [Pentostatin]
Cholesterol-free [1]: 1.242
Complete [1]: 0.8025
Difference [1]: −0.44
Cholesterol-free media + simvastatin (0.04 μM) [2]: 1.49
Complete Media [2]: 1.245
Difference [2]: −0.25

CC(=O)CCCCn1c(=O)c2c(ncn2C)n(C)c1=O [Pentoxifylline]
Difference [1, 6]: −0.26
Cholesterol-free [1, 3]: 1.143
Complete ([1]; NCI-H292 cells, complete media): 0.8845
Cholesterol-free media + simvastatin (0.04 μM) [2, 9]: 0.9442
Complete Media [2, 10]: 0.9268
Difference [2, 11]: −0.02

CCC(CC)[C@H](NC(C)=O)[C@@H]1[C@H](O)[C@@H](C(=O)O)C[C@H]1NC(=N)N.O.O.O [Peramivir (trihydrate)]
Cholesterol-free [1, 3]: 2.062
Complete ([1]; NCI-H292 cells, complete media): 1.606
Difference [1, 12]: −0.46
Cholesterol-free media + simvastatin (0.04 μM) [2, 13]: 1.025
Complete Media [2, 14]: 0.9283
Difference [2, 18]: −0.10

CC(C)=CCC/C(C)=C/CC/C(C)=C/C=C/C(C)=C/C(=O)O [Peretinoin]
Difference [1, 6]: −0.19
Cholesterol-free [1, 3]: 1.271
Complete ([1]; NCI-H292 cells, complete media): 1.084
Cholesterol-free media + simvastatin (0.04 μM) ([2]; NCI-H292 cells, FDA library drug in cholesterol-free media with simvastatin 0.04 μM): 1.273
Complete Media ([2]; NCI-H292 cells, FDA library drug in complete media): 0.971
Difference [2, 18]: −0.30

FC(F)(F)C(F)(F)C(F)(F)C(F)(F)C(F)(F)C(F)(F)C(F)(F)C(F)(F)Br [Perflubron]
Difference [1, 22]: −0.50
Cholesterol-free [1, 23]: 1.905
Complete [1, 24]: 1.408
Cholesterol-free media + simvastatin (0.04 μM) [2, 13]: 0.901
Complete Media [2, 14]: 1.248
Difference [2, 15]: 0.35
